Assay [1] in a line: microbe, parasite or virus in culture. Particulars: Mycobacterium tuberculosis, 72 h, read-out: pIC50 (converted).
Assay [2] in a line: microbe, parasite or virus in culture. The note with it: Mycobacterium tuberculosis, 96 h, read-out: pIC50 (converted).

In the case of `c1ccc(C2=NN=C(NC3CC3)SC2)cc1`, the IC50 in assay [1] was 230 µM; in assay [2], 140 µM.

For the compound `OC1CCN(Cc2ccc3c(c2)CCC3)C1` (stereo not given), the IC50 in assay [1] was 213 µM; in assay [2], greater than 501 µM.

Turning to `C=C(C)CN1CCN(c2ccccn2)CC1`, the IC50 in assay [1] and in assay [2] was greater than 501 µM each time.

As for `CNC(=O)c1cccc(NCc2ccc(C#N)s2)n1`, the results for the IC50 in assay [1] and in assay [2] were 180 µM and 205 µM, respectively.

With `CCNC(=O)c1ccn(-c2ccccc2)n1`, the IC50 was 340 µM in assay [1] and 232 µM in assay [2].

Take `NCCn1cc(C(=O)NCCSC2CCCCC2)nn1`: the figures for the IC50 in assay [1] and in assay [2] were 178 µM and 129 µM, respectively.

In the case of `CCN(C)C(=O)Nc1ccc(C(=O)OC)c(F)c1`, the IC50 in assay [1] and in assay [2] was greater than 501 µM in each case.

As to `CC(CO)(CO)NC(=O)c1cnc(-c2cccs2)s1`, the IC50 in assay [1] and in assay [2] was greater than 501 µM throughout.

As to `Cc1ccc(OCC(=O)Nc2nnn(C)n2)cc1`, the figures for the IC50 in assay [1] and in assay [2] were 274 µM and greater than 501 µM, respectively.

As for `NCC(NS(=O)(=O)CCc1cccs1)C1CC1` (stereo not given), the figures for the IC50 in assay [1] and in assay [2] were 167 µM and 47.8 µM, respectively.

On to `CCS(=O)(=O)c1ccc(CNc2ncccc2Cl)cc1`, for which the results for the IC50 in assay [1] and in assay [2] were 242 µM and greater than 501 µM, respectively.

As for `NCCNS(=O)(=O)c1ccc(F)c(C(F)(F)F)c1`, the results for the IC50 in assay [1] and in assay [2] were 476 µM and greater than 501 µM, respectively.

For the compound `CNC(=O)CCSc1ccc2c(c1)OCCO2`, the figures for the IC50 in assay [1] and in assay [2] were 143 µM and 165 µM, respectively.

Regarding `CNC(=O)CSc1nnnn1-c1ccc(C(C)C)cc1`, the values for the IC50 in assay [1] and in assay [2] were 120 µM and 134 µM, respectively.

As to `COc1ccccc1C(O)CNc1cccc(C)n1` (stereo not given), the IC50 in assay [1] is greater than 501 µM; in assay [2] it was 136 µM.

With `CC(=O)NCCCNCc1ccc(Br)c2cccnc12`, the IC50 in assay [1] was 278 µM; in assay [2], greater than 501 µM.

For `CN(C)c1cc(Cn2cnc3sccc3c2=O)ccn1`, the IC50 in assay [1] and in assay [2] was greater than 501 µM each time.

As for `CN(C)S(=O)(=O)c1cc2c(cc1Cl)OCCO2`, the values for the IC50 in assay [1] and in assay [2] were 209 µM and greater than 501 µM, respectively.

As for `CS(=O)(=O)N1CCC(NCCSc2cnn[nH]2)CC1`, the IC50 in assay [1] and in assay [2] was greater than 501 µM throughout.

Consider `NCc1cccc2cc[nH]c12`, for which the IC50 is 245 µM in assay [1] and 261 µM in assay [2].

In the case of `COCc1nn(Cc2ccccc2Cl)c(=O)o1`, the IC50 in assay [1] was 35.9 µM; in assay [2], 393 µM.

Take `COc1ccc(C(=O)NCCSc2cnn[nH]2)cc1F`: the IC50 in assay [1] and in assay [2] was greater than 501 µM throughout.

As to `N#Cc1ccccc1CN1CCCC1CO` (stereo not given), the IC50 in assay [1] was 129 µM; in assay [2] it was 176 µM.

Turning to `COc1ccc(F)cc1C(=O)OCC(=O)NC1CC1`, the IC50 in assay [1] is 105 µM; in assay [2], 212 µM.

Consider `COc1ccc(C)cc1CCN`, for which the figures for the IC50 in assay [1] and in assay [2] were 272 µM and 277 µM, respectively.

Regarding `CC(C)c1cc(C(=O)N2CC[C@@H](N)C2)nn1C(C)(C)C`, the IC50 in assay [1] and in assay [2] was greater than 501 µM each time.

Regarding `CN1CC(=O)Nc2cccnc21`, the IC50 in assay [1] is 157 µM; in assay [2], 314 µM.

As to `COC(=O)NCC(=O)N(C)c1ccc2ccccc2c1`, the IC50 is 129 µM in assay [1] and greater than 501 µM in assay [2].

Turning to `CC(N)c1noc(-c2ccc(Cl)cc2)n1` (stereo not given), the figures for the IC50 in assay [1] and in assay [2] were 261 µM and 375 µM, respectively.

As to `CCc1nc(CNC)cs1`, the IC50 in assay [1] was 305 µM; in assay [2], 236 µM.

Take `CN(C)C(=O)CN1CCOC(CCc2ccccc2)C1` (stereo not given): the IC50 in assay [1] and in assay [2] was greater than 501 µM throughout.

For `O=C1CCN(Cc2cc(Br)cc3cccnc23)CCN1`, the results for the IC50 in assay [1] and in assay [2] were 493 µM and greater than 501 µM, respectively.

As to `O=C(c1cnsn1)N1CC=C(c2ccccc2)CC1`, the IC50 in assay [1] is 35.1 µM; in assay [2] it was 237 µM.

As to `c1nsnc1-c1nc(C2CCCO2)no1` (stereo not given), the IC50 in assay [1] is 118 µM; in assay [2] it was greater than 501 µM.

Consider `CCCSc1ccc(NC(=O)NCCN)cc1`, for which the IC50 was 187 µM in assay [1] and 233 µM in assay [2].

As to `N#Cc1cccc(NCC(=O)NCc2ccco2)c1`, the IC50 in assay [1] was 223 µM; in assay [2] it was 108 µM.

On to `CN(Cc1ccco1)C(=O)CCc1ccc(C#N)cc1`, for which the IC50 in assay [1] was 31.7 µM; in assay [2] it was 77.4 µM.

For `Cc1cccc(C(=O)NCc2cccc(O)c2)n1`, the IC50 in assay [1] is 172 µM; in assay [2], 489 µM.

As for `NC(=O)CN1CCC(OCCCc2ccccc2)C1` (stereo not given), the values for the IC50 in assay [1] and in assay [2] were 246 µM and 369 µM, respectively.

For `CS(=O)(=O)NC(c1ccc(F)cc1)c1cccnc1` (stereo not given), the IC50 is 338 µM in assay [1] and greater than 501 µM in assay [2].

Take `CN(C(=O)CN)c1ccc(-c2ccccc2)cc1`: the IC50 in assay [1] is 305 µM; in assay [2], 260 µM.

`COc1ccc(OC)c(NC(=O)COCC(F)(F)F)c1`: the IC50 in assay [1] was 227 µM; in assay [2] it was greater than 501 µM.

In the case of `NCc1cccc(OCc2ccccn2)c1`, the results for the IC50 in assay [1] and in assay [2] were 187 µM and greater than 501 µM, respectively.

On to `CC(C)CCNC(=O)Nc1ccc(S(C)(=O)=O)cc1`, for which the IC50 was 162 µM in assay [1] and 127 µM in assay [2].

In the case of `CN(C)C(=O)CN1CCCC1c1ccc(F)cc1` (stereo not given), the IC50 in assay [1] is 96.3 µM; in assay [2] it was 143 µM.

Regarding `Cc1nnc(SCCCNC(=O)c2cc(Cl)c[nH]2)s1`, the IC50 in assay [1] was 121 µM; in assay [2], 119 µM.

Consider `CCCn1cc(CNc2nc(C3CC3)no2)cn1`, for which the IC50 in assay [1] is 125 µM; in assay [2], 151 µM.

`CC(C)Oc1ccc(CNC(=O)N2CCCC2)cn1`: the results for the IC50 in assay [1] and in assay [2] were 126 µM and 118 µM, respectively.

Turning to `NS(=O)(=O)NCCCc1ccc(Br)cc1F`, the IC50 is 151 µM in assay [1] and 218 µM in assay [2].

With `O=C(NC1CCCNC1)c1coc2ccccc12` (stereo not given), the IC50 in assay [1] and in assay [2] was greater than 501 µM throughout.

For the compound `CC(C(=O)NC1CC1)N1CCN(C)c2ccccc2C1` (stereo not given), the figures for the IC50 in assay [1] and in assay [2] were 248 µM and 276 µM, respectively.

Regarding `O=C(Cn1cnnn1)Nc1ccc(SC(F)F)cc1`, the figures for the IC50 in assay [1] and in assay [2] were 180 µM and 290 µM, respectively.

Take `CC(=O)Nc1nc(COc2ccc(C)cn2)cs1`: the IC50 was 237 µM in assay [1] and 244 µM in assay [2].

Consider `Cc1cc(C(=O)NCC(CO)c2ccccc2)ns1` (stereo not given), for which the IC50 in assay [1] was 103 µM; in assay [2], 130 µM.

Turning to `CCCS(=O)(=O)N(C)Cc1cccc(OCC)n1`, the values for the IC50 in assay [1] and in assay [2] were 367 µM and greater than 501 µM, respectively.

On to `C=C(C)COC(=O)c1ccc(-n2cncn2)cc1C`, for which the IC50 in assay [1] was 182 µM; in assay [2], 279 µM.

As to `COCC1CCN(C(=O)c2cc(C3CC3)on2)CC1`, the IC50 in assay [1] is greater than 501 µM; in assay [2] it was 26.5 µM.

With `CC(C)COCC(O)Cn1nnc(-c2ccco2)n1` (stereo not given), the IC50 was 88.9 µM in assay [1] and 12.9 µM in assay [2].

For `C=C(Br)Cn1c(CO)nc2ccccc21`, the IC50 in assay [1] and in assay [2] was greater than 501 µM throughout.

For the compound `CNC(=O)[C@@H](C)NC(=O)c1ccc(-c2ccc(C)o2)s1`, the figures for the IC50 in assay [1] and in assay [2] were 297 µM and 278 µM, respectively.

Consider `CN(C)c1nccc(CNc2ccc(C#N)nc2)n1`, for which the values for the IC50 in assay [1] and in assay [2] were 128 µM and 249 µM, respectively.

Turning to `CNS(=O)(=O)c1ccc(NCc2ccco2)cc1OC`, the figures for the IC50 in assay [1] and in assay [2] were 437 µM and 245 µM, respectively.

For the compound `CCC1CN(S(C)(=O)=O)c2ccccc2O1` (stereo not given), the IC50 was 164 µM in assay [1] and greater than 501 µM in assay [2].

In the case of `O=C(NCC(O)C1CCCCC1)[C@@H](O)c1ccccc1` (stereo not given in full), the IC50 is 86.1 µM in assay [1] and 189 µM in assay [2].

In the case of `OCCCNC(c1ccccc1)c1ccccn1` (stereo not given), the IC50 in assay [1] and in assay [2] was greater than 501 µM in each case.

Regarding `COC(=O)CCCNc1ccc2c(c1)OCCO2`, the IC50 in assay [1] was 140 µM; in assay [2], 467 µM.

As for `CCN1CCN(c2ccccc2O)CC1`, the IC50 in assay [1] was 210 µM; in assay [2], 189 µM.

As to `Cc1cccc(NCC(=O)NC2CCCCC2)n1`, the IC50 in assay [1] is 152 µM; in assay [2], 148 µM.

As to `COCCSCc1cccc(NC(=O)C(C)N)c1` (stereo not given), the figures for the IC50 in assay [1] and in assay [2] were 119 µM and greater than 501 µM, respectively.

Regarding `NC1(c2nc(-c3ccccc3)c[nH]2)CCCC1`, the results for the IC50 in assay [1] and in assay [2] were 176 µM and 258 µM, respectively.

`Cc1noc(NC(=O)c2ccc(C(F)(F)F)nc2C)n1`: the IC50 in assay [1] was 164 µM; in assay [2], 151 µM.

Consider `CN1CCN(C(=O)c2cnsn2)c2ccccc21`, for which the IC50 in assay [1] and in assay [2] was greater than 501 µM in each case.

In the case of `COc1ccc(C(N)c2ccc(OC)cc2OC)cc1` (stereo not given), the IC50 is 186 µM in assay [1] and 291 µM in assay [2].

As to `COc1ccccc1N1CCC(N)C1` (stereo not given), the IC50 in assay [1] is 30.5 µM; in assay [2], 64.3 µM.

Regarding `NCCCNS(=O)(=O)c1ccc(Br)c(F)c1`, the IC50 in assay [1] is 189 µM; in assay [2] it was greater than 501 µM.

Consider `NS(=O)(=O)N1CCN(CCCc2cccc(F)c2)CC1`, for which the IC50 in assay [1] and in assay [2] was greater than 501 µM each time.

For `COCCOCCn1nc(C)c(C#N)c1N`, the IC50 in assay [1] and in assay [2] was greater than 501 µM in each case.

In the case of `O=C(Cn1cccn1)NCCc1ccc2c(c1)OCO2`, the figures for the IC50 in assay [1] and in assay [2] were 251 µM and greater than 501 µM, respectively.

Regarding `Cc1ccc2nc(CCN)oc2c1`, the IC50 was 78.4 µM in assay [1] and 23.3 µM in assay [2].

For `NCc1cc(Cl)ccn1`, the IC50 was 156 µM in assay [1] and 301 µM in assay [2].

`CCC(CO)Nc1nccc(C(F)(F)F)n1` (stereo not given): the IC50 in assay [1] and in assay [2] was greater than 501 µM throughout.

As to `CCn1nc(C)cc1C(=O)Nc1ccnc(N(C)C)n1`, the IC50 in assay [1] is 96.2 µM; in assay [2] it was greater than 501 µM.

Take `NS(=O)(=O)c1ccc(F)c(C(=O)Nc2ccccc2)c1`: the IC50 in assay [1] is 262 µM; in assay [2], greater than 501 µM.

Consider `FC(F)(F)c1cccc(NCc2cccnc2)n1`, for which the IC50 was 85.5 µM in assay [1] and 275 µM in assay [2].

Turning to `O=C(c1cccc2cn[nH]c12)N1CCCC1CO` (stereo not given), the IC50 in assay [1] and in assay [2] was greater than 501 µM throughout.

The values above are taken from ChEMBL document CHEMBL3988442, “University of Dundee, Small-Polar-MMV Screening Library” (2021).
